What was measured:
Type in all cases: in vivo
P2X7R [1] = biological target: T1, P2X7R (Rattus norvegicus, UniProt Q64663); test: Creatinine in BDL rats given LPS infusion with intra-renal P2X7R agonist; conditions: LPS 0.25 mg/kg iv over 3 hours
T1 construct: upregulation of the tubular expression of the P2X7R; from tissue; host or cells: kidney of living Sprague-Dawley rats (sham, BDL, BDL+LPS); compounds dosed in vivo
T1 sequence (Q64663 1-595): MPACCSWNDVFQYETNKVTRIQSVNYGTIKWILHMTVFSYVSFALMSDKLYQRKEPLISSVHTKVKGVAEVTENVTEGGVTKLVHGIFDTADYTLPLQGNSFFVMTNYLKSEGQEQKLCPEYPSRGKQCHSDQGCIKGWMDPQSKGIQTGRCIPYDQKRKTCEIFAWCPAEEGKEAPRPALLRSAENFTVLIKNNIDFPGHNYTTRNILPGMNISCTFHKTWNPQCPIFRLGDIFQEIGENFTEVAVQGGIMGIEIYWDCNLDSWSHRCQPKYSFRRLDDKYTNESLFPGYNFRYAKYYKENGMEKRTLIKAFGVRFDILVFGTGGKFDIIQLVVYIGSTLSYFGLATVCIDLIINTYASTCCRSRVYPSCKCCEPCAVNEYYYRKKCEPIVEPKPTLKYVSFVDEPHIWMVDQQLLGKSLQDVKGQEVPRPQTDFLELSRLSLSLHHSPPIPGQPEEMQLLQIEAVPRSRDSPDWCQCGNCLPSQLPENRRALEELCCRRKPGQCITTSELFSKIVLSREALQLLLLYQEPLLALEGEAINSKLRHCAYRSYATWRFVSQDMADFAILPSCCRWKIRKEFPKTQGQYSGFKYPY
Description: (§1) These experiments utilised an established animal model of cirrhosis, the bile duct ligated (BDL) rat. BDL rats may be generated by methods known in the art. For example, male Sprague-Dawley rats (200-250 g) may be used for this procedure. Following anaesthetisation, a mid-line laparotamy may be performed, the bile duct exposed, triply ligated with 4.0 silk suture, and severed between the second and third ligature. The wound is then closed in layers with absorbable suture, and the animal allowed to recover in a quiet room before being returned to the animal storage facility. Sham animals underwent sham laparotomy. The BDL model was studied 4 weeks after bile duct ligation and liver histology confirmed advanced fibrosis.
Rats were given a continuous intravenous infusion of LPS at 0.25 mg/kg over 3 hours. The P2X7R agonist BzATP was infused into the renal artery 30 mins before LPS infusion began and continued for the duration of the experiment at a dose of 150 μg/hour.

P2X7R [2] = biological target: T1, P2X7R; test: P2X7 receptor expression in kidneys, cirrhotic AKI model (BDL rat + LPS), immunohistochemistry; conditions: 300 μmol/kg IP 12-hourly for 7 days, with or without LPS 0.5 mg/kg IP, n=3 in each group, FIG. 3
Description: as §1
(§2) LPS (lipopolysaccharide) was given at a dose of 0.5 mg/kg intra-peritoneal. The P2X7R antagonist (A-438079) was given at a dose of 300 μmol/kg 12-hourly 7 days before LPS was given (if applicable). Animals were terminated 3 hours post LPS dose. P2X7RA=P2X7R antagonist.
Urine was collected for assessment of urinary biomarkers of acute kidney injury (AKI). Blood was collected for biochemistry, endotoxin and cytokine analysis. Tissue was collected for histology, immunohistochemistry and western blot. Brain frontal cortex was collected to ascertain brain water. Biochemistry was measured using COBAS integra. Urinary NGAL was measured by ELISA. […]

P2X7R [3] = biological target: T1, P2X7R; test: Biomarkers of acute kidney injury in cirrhotic AKI model (BDL rat + LPS) with P2X7R antagonist; conditions: 300 μmol/kg 12-hourly 7 days before LPS 0.5 mg/kg IP, terminated 3 hours post LPS
Description: as §1, §2
Urine was collected for assessment of urinary biomarkers of acute kidney injury (AKI). Blood was collected for biochemistry, endotoxin and cytokine analysis. Tissue was collected for histology, immunohistochemistry and western blot. Brain frontal cortex was collected to ascertain brain water. Biochemistry was measured using COBAS integra. Urinary NGAL was measured by ELISA.

Compound | Creatinine (mean) (P2X7R [1]; BDL + LPS + BzATP group, 150 μg/hour into renal artery) [µmol/L] | reduction of LPS induced rise in creatinine (P2X7R [1]; BDL rat, infused into renal artery 150 μg/hour from 30 mins before LPS, FIG. 7) [%] | increased P2X7 receptor expression in kidneys (tubular expression) of BDL and BDL+LPS animals (P2X7R [2]) | biomarkers of acute kidney injury (urine NGAL, creatinine) compared to the other groups (P2X7R [3]; FIG. 4) | biomarkers of acute kidney injury (urine NGAL, creatinine) compared to the other groups (P2X7R [3]; FIG. 4, listed as P2X7R antagonist)
2′(3′)-O-(4-Benzoylbenzoyl)adenosine-5′-triphosphate [BzATP] | 57.93 | 24 |  |  | 
Clc1cccc(-c2nnnn2Cc2cccnc2)c1Cl [A-438079] |  |  | attenuated | greater | higher

Source: US20160120938A1, “P2X7 RECEPTOR AGONIST FOR USE IN PREVENTING OR TREATING KIDNEY INJURY” (UCL BUSINESS PLC, priority 2013, published 2016)
